In this experiment the test system is Female C57B1/6 mice. As to the kind of experiment: Maximal endurance test (treadmill) in non-trained animals. Type of experiment: in vivo, mouse. The protocol: To test the effect of trigonelline in non-trained animals, we performed a maximal endurance test after a treatment period of three weeks.
Female C57B1/6 mice were delivered at a weight of 18-20 g and acclimatized to the facilities for a period of one week. At the beginning of the study the animals were randomized into two groups (10 animals per group). All mice were housed separately and had access to feed and water ad libidum. Animals were treated for three weeks by gavage with trigonelline-hydrochloride at a daily dosage of 300 mg/kg/BW and the control group received vehicle.
For acclimatization, animals were placed on the treadmill for 5 minutes after two weeks. The maximal endurance test was performed two day before the section of the animals.

Regarding `C[n+]1cccc(C(=O)[O-])c1` [Trigonelline, trigonelline monohydrate], the “skeletal muscle mass in untrained mice (in words)” value (3 weeks of supplementation) is reported as “no effect”. Further, the “endurance of untrained animals (in words)” value (3 weeks of supplementation, monohydrate) is given as “not influenced”. Besides, the “wet weight of the gastrocnemius muscle, treated vs control (in words)” value (untrained mice, three weeks of supplementation, FIG. 4) is “equal in both groups”.
